Source: the supplement of paper PMC10307832

Assays:
Experiment in all cases: relative viability (nuclei count vs DMSO), 5 days (fraction); higher = more cells survive
[1] = compound: O=C(O)c1ccc2c(c1)nc(Nc1cccc(Cl)c1)c1ccncc12 [Silmitasertib] + Cc1nc(NC(=O)N2CCC[C@H]2C(N)=O)sc1-c1ccnc(C(C)(C)C(F)(F)F)c1 [Alpelisib] (partner 2 µM)
How it was run: (§1)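 Lung cancer cell lines in 1536-well plates got either a single drug or a fixed anchor-drug dose together with five library-drug doses (not always all listed) in √10 steps, by pin tool, on the day after seeding. Nuclei were counted after 5 days, and relative viability is the treated-to-vehicle ratio of nuclei counts. Values are medians of duplicate plates.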

[2] = compound: O=C(O)c1ccc2c(c1)nc(Nc1cccc(Cl)c1)c1ccncc12 [Silmitasertib] + Nc1nc2[nH]cc(CCc3ccc(C(=O)N[C@@H](CCC(=O)O)C(=O)O)cc3)c2c(=O)[nH]1 [Pemetrexed] (partner 0.2 µM)
How it was run: as §1

[3] = compound: O=C(O)c1ccc2c(c1)nc(Nc1cccc(Cl)c1)c1ccncc12 [Silmitasertib] + Nc1ncn([C@H]2C[C@H](O)[C@@H](CO)O2)c(=O)n1 [Decitabine] (partner 2 µM)
How it was run: as §1

[4] = compound: O=C(O)c1ccc2c(c1)nc(Nc1cccc(Cl)c1)c1ccncc12 [Silmitasertib] + O=C(CCCCCCC(=O)Nc1ccccc1)NO [Vorinostat] (partner 1 µM)
How it was run: as §1

Silmitasertib + Olaparib = compound: O=C(O)c1ccc2c(c1)nc(Nc1cccc(Cl)c1)c1ccncc12 [Silmitasertib] + O=C(c1cc(Cc2n[nH]c(=O)c3ccccc23)ccc1F)N1CCN(C(=O)C2CC2)CC1 [Olaparib] (partner 8 µM)
How it was run: as §1

201T was tested, and the relative viability ([1]; first compound 0.04 µM) was 0.908, the relative viability ([1]; first compound 0.4 µM) was 1 and the relative viability ([1]; first compound 1.265 µM) was 1.01. The relative viability ([1]; first compound 4 µM) was 1.13, the relative viability ([2]; first compound 0.04 µM) was 0.381 and the relative viability ([2]; first compound 0.4 µM) was 0.229. The relative viability ([2]; first compound 1.265 µM) was 0.341, the relative viability ([2]; first compound 4 µM) was 0.381 and the relative viability ([3]; first compound 0.04 µM) was 0.851. It also gave a relative viability ([3]; first compound 0.4 µM) of 0.841, a relative viability ([3]; first compound 1.265 µM) of 0.847 and a relative viability ([3]; first compound 4 µM) of 0.903. The relative viability ([4]; first compound 0.04 µM) was 1.09, the relative viability ([4]; first compound 0.4 µM) was 0.949 and the relative viability ([4]; first compound 1.265 µM) was 1.02. It also gave a relative viability ([4]; first compound 4 µM) of 0.837, a relative viability (Silmitasertib + Olaparib; first compound 0.04 µM) of 0.82 and a relative viability (Silmitasertib + Olaparib; first compound 0.4 µM) of 0.756. It also gave a relative viability (Silmitasertib + Olaparib; first compound 1.265 µM) of 0.945 and a relative viability (Silmitasertib + Olaparib; first compound 4 µM) of 0.953.

NCI-H3122 showed a relative viability ([1]; first compound 0.04 µM) of 0.784, a relative viability ([1]; first compound 0.4 µM) of 0.726 and a relative viability ([1]; first compound 1.265 µM) of 0.902. It also gave a relative viability ([1]; first compound 4 µM) of 0.969, a relative viability ([2]; first compound 0.04 µM) of 0.203 and a relative viability ([2]; first compound 0.4 µM) of 0.189. The relative viability ([2]; first compound 1.265 µM) was 0.185, the relative viability ([2]; first compound 4 µM) was 0.194 and the relative viability ([3]; first compound 0.04 µM) was 0.514. The relative viability ([3]; first compound 0.4 µM) was 0.337, the relative viability ([3]; first compound 1.265 µM) was 0.416 and the relative viability ([3]; first compound 4 µM) was 0.511. It also gave a relative viability ([4]; first compound 0.04 µM) of 1.04, a relative viability ([4]; first compound 0.4 µM) of 0.807 and a relative viability ([4]; first compound 1.265 µM) of 0.679. The relative viability ([4]; first compound 4 µM) was 1.19, the relative viability (Silmitasertib + Olaparib; first compound 0.04 µM) was 0.675 and the relative viability (Silmitasertib + Olaparib; first compound 0.4 µM) was 0.371. For the same cell line, the relative viability (Silmitasertib + Olaparib; first compound 1.265 µM) was 0.616 and the relative viability (Silmitasertib + Olaparib; first compound 4 µM) was 0.644.

For A549, the relative viability ([1]; first compound 0.04 µM) was 1.02, the relative viability ([1]; first compound 0.4 µM) was 0.918 and the relative viability ([1]; first compound 1.265 µM) was 0.828. For the same cell line, the relative viability ([1]; first compound 4 µM) was 0.869, the relative viability ([3]; first compound 0.04 µM) was 0.244 and the relative viability ([3]; first compound 1.265 µM) was 0.27. It also gave a relative viability ([3]; first compound 4 µM) of 0.158, a relative viability (Silmitasertib + Olaparib; first compound 0.04 µM) of 0.301 and a relative viability (Silmitasertib + Olaparib; first compound 1.265 µM) of 0.273. It also gave a relative viability (Silmitasertib + Olaparib; first compound 4 µM) of 0.12.

NCI-H727 showed a relative viability ([1]; first compound 0.04 µM) of 0.611, a relative viability ([1]; first compound 0.4 µM) of 0.506 and a relative viability ([1]; first compound 1.265 µM) of 0.493. For the same cell line, the relative viability ([1]; first compound 4 µM) was 0.297, the relative viability ([3]; first compound 0.04 µM) was 1.09 and the relative viability ([3]; first compound 0.4 µM) was 0.844. It also gave a relative viability ([3]; first compound 1.265 µM) of 0.544, a relative viability ([3]; first compound 4 µM) of 0.691 and a relative viability ([4]; first compound 0.04 µM) of 1.36. The relative viability ([4]; first compound 0.4 µM) was 0.822, the relative viability ([4]; first compound 1.265 µM) was 0.83 and the relative viability ([4]; first compound 4 µM) was 1.16. For the same cell line, the relative viability (Silmitasertib + Olaparib; first compound 0.04 µM) was 0.709, the relative viability (Silmitasertib + Olaparib; first compound 0.4 µM) was 0.59 and the relative viability (Silmitasertib + Olaparib; first compound 1.265 µM) was 0.584. The relative viability (Silmitasertib + Olaparib; first compound 4 µM) was 0.681.

NCI-H441 showed a relative viability ([1]; first compound 0.04 µM) of 0.746, a relative viability ([1]; first compound 1.265 µM) of 0.634 and a relative viability ([1]; first compound 4 µM) of 0.41. It also gave a relative viability ([2]; first compound 0.04 µM) of 0.289, a relative viability ([2]; first compound 1.265 µM) of 0.245 and a relative viability ([2]; first compound 4 µM) of 0.281. For the same cell line, the relative viability ([3]; first compound 0.04 µM) was 0.207, the relative viability ([3]; first compound 1.265 µM) was 0.216 and the relative viability ([3]; first compound 4 µM) was 0.231. For the same cell line, the relative viability ([4]; first compound 0.04 µM) was 0.935, the relative viability ([4]; first compound 1.265 µM) was 0.822 and the relative viability ([4]; first compound 4 µM) was 0.843. For the same cell line, the relative viability (Silmitasertib + Olaparib; first compound 0.04 µM) was 0.604, the relative viability (Silmitasertib + Olaparib; first compound 1.265 µM) was 0.647 and the relative viability (Silmitasertib + Olaparib; first compound 4 µM) was 0.341.

With HOP-62 the relative viability ([1]; first compound 0.04 µM) was 1.03, the relative viability ([1]; first compound 1.265 µM) was 0.867 and the relative viability ([1]; first compound 4 µM) was 0.678. For the same cell line, the relative viability ([2]; first compound 0.04 µM) was 0.281, the relative viability ([2]; first compound 1.265 µM) was 0.269 and the relative viability ([2]; first compound 4 µM) was 0.301. For the same cell line, the relative viability ([3]; first compound 0.04 µM) was 0.24, the relative viability ([3]; first compound 1.265 µM) was 0.203 and the relative viability ([3]; first compound 4 µM) was 0.211. It also gave a relative viability ([4]; first compound 0.04 µM) of 0.779, a relative viability ([4]; first compound 1.265 µM) of 0.584 and a relative viability ([4]; first compound 4 µM) of 0.388. For the same cell line, the relative viability (Silmitasertib + Olaparib; first compound 0.04 µM) was 0.427, the relative viability (Silmitasertib + Olaparib; first compound 1.265 µM) was 0.378 and the relative viability (Silmitasertib + Olaparib; first compound 4 µM) was 0.338.

RERF-LC-KJ gave a relative viability ([1]; first compound 0.04 µM) of 0.929, a relative viability ([1]; first compound 0.4 µM) of 0.797 and a relative viability ([1]; first compound 1.265 µM) of 0.66. It also gave a relative viability ([1]; first compound 4 µM) of 0.51, a relative viability ([2]; first compound 0.04 µM) of 0.488 and a relative viability ([2]; first compound 0.4 µM) of 0.445. For the same cell line, the relative viability ([2]; first compound 1.265 µM) was 0.439, the relative viability ([2]; first compound 4 µM) was 0.342 and the relative viability ([3]; first compound 0.04 µM) was 0.766. It also gave a relative viability ([3]; first compound 0.4 µM) of 0.627, a relative viability ([3]; first compound 1.265 µM) of 0.455 and a relative viability ([3]; first compound 4 µM) of 0.344. It also gave a relative viability ([4]; first compound 0.04 µM) of 0.768, a relative viability ([4]; first compound 0.4 µM) of 0.517 and a relative viability ([4]; first compound 1.265 µM) of 0.463. The relative viability ([4]; first compound 4 µM) was 0.371, the relative viability (Silmitasertib + Olaparib; first compound 0.04 µM) was 0.909 and the relative viability (Silmitasertib + Olaparib; first compound 0.4 µM) was 0.829. For the same cell line, the relative viability (Silmitasertib + Olaparib; first compound 1.265 µM) was 0.785 and the relative viability (Silmitasertib + Olaparib; first compound 4 µM) was 0.74.

With HCC-44 the relative viability ([1]; first compound 0.04 µM) was 0.767, the relative viability ([1]; first compound 0.4 µM) was 0.761 and the relative viability ([1]; first compound 1.265 µM) was 0.769. The relative viability ([1]; first compound 4 µM) was 0.741, the relative viability ([2]; first compound 0.04 µM) was 0.63 and the relative viability ([2]; first compound 0.4 µM) was 0.667. For the same cell line, the relative viability ([2]; first compound 1.265 µM) was 0.71, the relative viability ([2]; first compound 4 µM) was 0.661 and the relative viability ([3]; first compound 0.04 µM) was 0.933. The relative viability ([3]; first compound 0.4 µM) was 0.929, the relative viability ([3]; first compound 1.265 µM) was 1.01 and the relative viability ([3]; first compound 4 µM) was 0.825. It also gave a relative viability ([4]; first compound 0.04 µM) of 1.06, a relative viability ([4]; first compound 0.4 µM) of 0.903 and a relative viability ([4]; first compound 1.265 µM) of 1.24. The relative viability ([4]; first compound 4 µM) was 1.16, the relative viability (Silmitasertib + Olaparib; first compound 0.04 µM) was 0.972 and the relative viability (Silmitasertib + Olaparib; first compound 0.4 µM) was 0.822. For the same cell line, the relative viability (Silmitasertib + Olaparib; first compound 1.265 µM) was 1.06 and the relative viability (Silmitasertib + Olaparib; first compound 4 µM) was 1.02.

LCLC-103H was tested, and the relative viability ([1]; first compound 0.04 µM) was 0.995, the relative viability ([1]; first compound 0.4 µM) was 1.01 and the relative viability ([1]; first compound 1.265 µM) was 0.971. It also gave a relative viability ([1]; first compound 4 µM) of 0.939, a relative viability ([2]; first compound 0.04 µM) of 0.49 and a relative viability ([2]; first compound 0.4 µM) of 0.394. It also gave a relative viability ([2]; first compound 1.265 µM) of 0.416, a relative viability ([2]; first compound 4 µM) of 0.378 and a relative viability ([3]; first compound 0.04 µM) of 0.791. It also gave a relative viability ([3]; first compound 0.4 µM) of 0.655, a relative viability ([3]; first compound 1.265 µM) of 0.616 and a relative viability ([3]; first compound 4 µM) of 0.556. It also gave a relative viability ([4]; first compound 0.04 µM) of 0.823, a relative viability ([4]; first compound 0.4 µM) of 0.693 and a relative viability ([4]; first compound 1.265 µM) of 0.774. The relative viability ([4]; first compound 4 µM) was 0.428, the relative viability (Silmitasertib + Olaparib; first compound 0.04 µM) was 0.817 and the relative viability (Silmitasertib + Olaparib; first compound 0.4 µM) was 0.719. The relative viability (Silmitasertib + Olaparib; first compound 1.265 µM) was 0.641 and the relative viability (Silmitasertib + Olaparib; first compound 4 µM) was 0.664.
